Values joined by “and” are separate entries in the source; they are usually repeats but may differ in a detail not shown here. Equal entries are not always repeated.
Tested on: Human umbilical vein endothelial cells (HUVECs)
Test: eNOS activity analysis: NO, ONOO− and NO/ONOO− release from HUVECs of 50 genotyped donors in response to LA-419 (Example 2)
Format: cell-based
Details: LA-419 1 μM
Procedure: Concurrent measurements of NO and ONOO^− were carried out with tandem electrochemical nanosensors combined into one working unit with a total diameter of 200-500 nm (FIG. 1). Their design was based on previously developed and well-characterized chemically modified carbon-fiber technology (Malinski and Taha, 1992; Lvovich and Scheeline, 1997). Each of the nanosensors was made by depositing a sensing material on the tip of a carbon fiber (length 4-5 μm, diameter 0.2-0.5 μm). The fibers were sealed with nonconductive epoxy and electrically connected to copper wires with conductive silver epoxy. A conductive film of polymeric nickel (II) tetrakis(3-methoxy-4-hydroxyphenyl)porphyrin for the NO-sensor and polymeric film of Mn (III) [2.2]paracyclophanylporphyrin was used for the ONOO^−-sensor.
A module of NO/ONOO^− nanosensors (diameter 1-2 μm) with a platinum wire (0.1 mm) counter electrode and saturated calomel reference electrode (SCE) were applied. Differential pulse voltammetry (DPV) and amperometry were performed with a computer-based Gamry VFP600 multichannel potentiostat. DPV was used to measure the basal NO and ONOO^− concentrations, and amperometry was used to measure changes in NO and ONOO^− concentrations from its basal level with time. The DPV current at the peak potential characteristic for NO oxidation (0.65 V) and ONOO^− reduction (−0.45 V) was directly proportional to the local concentrations of these compounds in the immediate vicinity of the sensor. Linear calibration curves (current vs. concentration) were constructed for each sensor from 10 nM to 3 μM before and after measurements with aliquots of NO and ONOO^− standard solutions, respectively. The detection limit of the sensors was 1.0 nM.
The quantification of each analyte (concentration in nM) was performed using a maximum current from amperograms and standard calibration curves. A reproducibility of measurements with nanosensors is relatively high (between 5-12%). […] The sensors were slowly raised 5±2 μm from the surface of a single endothelial cell. The eNOS agonist, calcium ionophore A23187 (CaI) as well as the different drugs were then added to the surrounding media at the cell surface with a nanoinjector that was also positioned by a computer controlled-micromanipulator.
This example describes the genotype-specific response of the three major eNOS variants to 1 μM and 5 μM concentrations of LA-419. The three major genetic polymorphisms studied were the Glu298Asp variant (E298D or 894G→T) in exon 7 of […], the −786T→C variant in the promoter region, and the intron 4 polymorphism (VNTR). All of these variants have possible effects on the cardiovascular system and endothelial dysfunction. For this study, human umbilical vein endothelial cells (HUVECs) from 50 donors between 18 and 32 years of age were used.
For the analysis several analysis techniques were employed. First, the effect of genotype on NO and ONOO^− release was explored within the different concentrations of LA-419 (control, 1 μM, 5 μM), calculated as the average peak release (nmols/L) of NO, ONOO^−, and NO/ONOO^−. The effect of genotype on the net increase in NO, ONOO^−, and NO/ONOO^− for LA-419 (1 μM and 5 μM) as compared to control was also measured. In addition, an analysis was done on the effect of genotype on the % change in NO, ONOO^−, and NO/ONOO^− production for LA-419 (1 μM and 5 μM), calculated as:
% Change=[(avg. LA-419−avg. control)/(avg. control)]*100
Finally, an evaluation was undertaken concerning the effect of genotype on the production of NO, ONOO^−, and NO/ONOO^− as the fold difference of control for LA-419 (1 μM and 5 μM), calculated as:
Fold Difference=(avg. LA-419)/(avg. control)
Within each calculation technique the results were compared for statistical significance using a non-parametric ANOVA Kruskal-Wallace test or a non-parametric Mann-Whitney U test. Statistical significance was set at a p-value <0.05 in a two-tailed distribution. […]

[1] = HUVECs G894T + T-786C Combination of all genotypes other than G/G + T/T
[2] = HUVECs G894T + T-786C variant G/G + T/C
[3] = HUVECs G894T + T-786C variant G/G + T/T (Reference)
[4] = HUVECs G894T + T-786C variant G/T + C/C
[5] = HUVECs G894T + T-786C variant G/T + T/C
[6] = HUVECs G894T + T-786C variant G/T + T/T
[7] = HUVECs G894T + T-786C variant T/T + C/C
[8] = HUVECs G894T + T-786C variant T/T + T/C

CC(=O)SC1COC2C(O[N+](=O)[O-])COC12 (stereo not drawn) [LA-419, S-(6-Nitro-oxi-hexahydro-furo[3,2-b]furan-3-1-il)thioacetate]
Net increase over control NO/ONOO− (mean ± sd) [1]: −0.92 (0.90)
Net increase over control ONOO− (mean ± sd) [1]: −42.43 (111.75) nmols/L
Peak release NO (mean ± sd) [1]: 390.03 (73.13) nmols/L
Peak release NO/ONOO− (mean ± sd) [1]: 1.29 (0.46)
Peak release ONOO− (mean ± sd) [1]: 331.26 (91.43) nmols/L
Net increase over control NO (mean ± sd) [2]: 5.33 (68.90) nmols/L
Net increase over control NO/ONOO− (mean ± sd) [2]: −0.88 (0.63)
Net increase over control ONOO− (mean ± sd) [2]: 13.13 (106.46) nmols/L
Peak release NO (mean ± sd) [2]: 351.00 (88.83) nmols/L
Peak release NO/ONOO− (mean ± sd) [2]: 1.09 (0.51)
Peak release ONOO− (mean ± sd) [2]: 357.00 (94.18) nmols/L
Net increase over control NO (mean ± sd) [3]: 31.22 (71.86) nmols/L
Net increase over control NO/ONOO− (mean ± sd) [3]: 1.16 (9.12)
Net increase over control ONOO− (mean ± sd) [3]: −32.54 (86.18) nmols/L
Peak release NO (mean ± sd) [3]: 374.30 (78.06) nmols/L
Peak release NO/ONOO− (mean ± sd) [3]: 1.19 (0.43)
Peak release ONOO− (mean ± sd) [3]: 338.98 (81.16) nmols/L
Net increase over control NO (mean ± sd) [4]: −53.67 (0) nmols/L
Net increase over control NO/ONOO− (mean ± sd) [4]: −0.24 (0)
Net increase over control ONOO− (mean ± sd) [4]: 228.33 (0) nmols/L
Peak release NO (mean ± sd) [4]: 334.67 (0) nmols/L
Peak release NO/ONOO− (mean ± sd) [4]: 0.64 (0)
Peak release ONOO− (mean ± sd) [4]: 526.67 (0) nmols/L
Net increase over control NO (mean ± sd) [5]: 76.26 (75.55) nmols/L
Net increase over control NO/ONOO− (mean ± sd) [5]: −1.21 (1.06)
Net increase over control ONOO− (mean ± sd) [5]: −81.10 (79.76) nmols/L
Peak release NO (mean ± sd) [5]: 420.44 (56.87) nmols/L
Peak release NO/ONOO− (mean ± sd) [5]: 1.44 (0.32)
Peak release ONOO− (mean ± sd) [5]: 302.82 (59.66) nmols/L
Net increase over control NO (mean ± sd) [6]: 28.92 (13.00) nmols/L
Net increase over control NO/ONOO− (mean ± sd) [6]: −0.99 (1.06)
Net increase over control ONOO− (mean ± sd) [6]: −2.83 (64.48) nmols/L
Peak release NO (mean ± sd) [6]: 409.67 (64.25) nmols/L
Peak release NO/ONOO− (mean ± sd) [6]: 1.37 (0.44)
Peak release ONOO− (mean ± sd) [6]: 321.58 (90.82) nmols/L
Net increase over control NO (mean ± sd) [7]: 20.67 (16.77) nmols/L
Net increase over control NO/ONOO− (mean ± sd) [7]: −0.56 (0.56)
Net increase over control ONOO− (mean ± sd) [7]: −42.44 (9.91) nmols/L
Peak release NO (mean ± sd) [7]: 334.11 (83.36) nmols/L
Peak release NO/ONOO− (mean ± sd) [7]: 0.96 (0.58)
Peak release ONOO− (mean ± sd) [7]: 398.00 (131.00) nmols/L
Net increase over control NO (mean ± sd) [8]: 20.83 (131.76) nmols/L
Net increase over control NO/ONOO− (mean ± sd) [8]: 0.07 (0.61)
Net increase over control ONOO− (mean ± sd) [8]: −227.83 (117.62) nmols/L
Peak release NO (mean ± sd) [8]: 420.83 (4.48) nmols/L
Peak release NO/ONOO− (mean ± sd) [8]: 1.80 (0.16)
Peak release ONOO− (mean ± sd) [8]: 234.67 (23.10) nmols/L
% Change Ratio, % Change NO/% Change ONOO− (mean ± sd) (HUVECs G894T variant G/G): 0.76 (8.64)
Net increase over control NO (mean ± sd) (HUVECs G894T variant G/G): 23.26 (70.68) nmols/L and 23.26 (70.64) nmols/L
Net increase over control NO/ONOO− (mean ± sd) (HUVECs G894T variant G/G): 0.53 (7.59)
Net increase over control ONOO− (mean ± sd) (HUVECs G894T variant G/G): −18.49 (93.20) nmols/L
Peak release NO (mean ± sd) (HUVECs G894T variant G/G): 367.13 (80.46) nmols/L
Peak release NO/ONOO− (mean ± sd) (HUVECs G894T variant G/G): 1.16 (0.45)
Peak release ONOO− (mean ± sd) (HUVECs G894T variant G/G): 344.53 (83.88) nmols/L
% Change Ratio, % Change NO/% Change ONOO− (mean ± sd) (HUVECs G894T variant G/T): −1.15 (0.91)
Net increase over control NO (mean ± sd) (HUVECs G894T variant G/T): 58.52 (72.43) nmols/L
Net increase over control NO/ONOO− (mean ± sd) (HUVECs G894T variant G/T): −1.12 (1.02)
Net increase over control ONOO− (mean ± sd) (HUVECs G894T variant G/T): −46.52 (105.03) nmols/L
Peak release NO (mean ± sd) (HUVECs G894T variant G/T): 413.28 (58.46) nmols/L
Peak release NO/ONOO− (mean ± sd) (HUVECs G894T variant G/T): 1.38 (0.38)
Peak release ONOO− (mean ± sd) (HUVECs G894T variant G/T): 319.43 (81.89) nmols/L
Net increase over control NO (mean ± sd) (HUVECs G894T variant G/T & T/T): 50.30 (71.57) nmols/L
Net increase over control NO/ONOO− (mean ± sd) (HUVECs G894T variant G/T & T/T): −0.93 (0.99)
Net increase over control ONOO− (mean ± sd) (HUVECs G894T variant G/T & T/T): −61.75 (109.14) nmols/L
Peak release NO (mean ± sd) (HUVECs G894T variant G/T & T/T): 403.61 (63.52) nmols/L
Peak release NO/ONOO− (mean ± sd) (HUVECs G894T variant G/T & T/T): 1.36 (0.43)
Peak release ONOO− (mean ± sd) (HUVECs G894T variant G/T & T/T): 322.30 (90.85) nmols/L
% Change Ratio, % Change NO/% Change ONOO− (mean ± sd) (HUVECs G894T variant T/T): −0.66 (1.02)
Net increase over control NO (mean ± sd) (HUVECs G894T variant T/T): 20.73 (66.94) nmols/L
Net increase over control NO/ONOO− (mean ± sd) (HUVECs G894T variant T/T): −0.31 (0.61)
Net increase over control ONOO− (mean ± sd) (HUVECs G894T variant T/T): −116.60 (117.55) nmols/L
Peak release NO (mean ± sd) (HUVECs G894T variant T/T): 368.80 (75.73) nmols/L
Peak release NO/ONOO− (mean ± sd) (HUVECs G894T variant T/T): 1.29 (0.63)
Peak release ONOO− (mean ± sd) (HUVECs G894T variant T/T): 332.67 (129.30) nmols/L
Net increase over control NO (mean ± sd) (HUVECs Intron 4 variant a/a): −25.78 (104.49) nmols/L
Net increase over control NO/ONOO− (mean ± sd) (HUVECs Intron 4 variant a/a): −0.11 (0.56)
Net increase over control ONOO− (mean ± sd) (HUVECs Intron 4 variant a/a): 26.11 (116.99) nmols/L
Peak release NO (mean ± sd) (HUVECs Intron 4 variant a/a): 360.56 (80.60) nmols/L
Peak release NO/ONOO− (mean ± sd) (HUVECs Intron 4 variant a/a): 0.97 (0.57)
Peak release ONOO− (mean ± sd) (HUVECs Intron 4 variant a/a): 421.11 (124.25) nmols/L
Net increase over control NO (mean ± sd) (HUVECs Intron 4 variant b/a): 56.57 (67.97) nmols/L
Net increase over control NO/ONOO− (mean ± sd) (HUVECs Intron 4 variant b/a): 0.28 (0.43)

Source: US20130131161A1, “METHODS AND COMPOSITIONS FOR CARDIOVASCULAR DISEASES AND CONDITIONS” (priority 2009, published 2013)
